# In US20180161314A1, “Methods for Treating Hyperuricemia and Related Diseases” (Ardea Biosciences, Inc., priority 2010, published 2018):
# System: healthy adult subjects
# Assay: Drug 1 / febuxostat cross-over interaction study in healthy adult subjects (Examples 10-12)
# Assay type: in vivo, human
# Conditions: for % serum uric acid change, Mean: drug 1 200 mg qd, febuxostat 40 mg qd; for Absolute sUA reduction from baseline, Intraday peak / Absolute sUA reduction from baseline, Trough / Percent sUA reduction from baseline, Intraday peak / Percent sUA reduction from baseline, Trough: febuxostat 40 mg alone
# Excerpt: Study Objectives • To compare the multiple-dose pharmacokinetics of febuxostat in the absence versus presence of drug 1 co-administration. • To compare the multiple-dose pharmacokinetics of drug 1 in the absence versus presence of febuxostat co-administration. • To measure the effects of drug 1 and febuxostat, both alone and in combination, on serum uric acid concentrations and amounts of urate excreted into urine. • To evaluate the safety and tolerability of multiple-doses of drug 1 and febuxostat, both alone or in combination.
# The study is a two or three-panel, placebo-controlled (for drug 1), double-blinded (for drug 1 and matched placebo), randomized, cross-over study with up to 54 healthy adult subjects. Each panel consisting of 18 subjects is sequentially enrolled, starting with Panel 1 (200 mg once daily dose of drug 1 or placebo), followed by Panel 2 (400 mg once daily dose of drug 1 or placebo), and followed by optional Panel 3 (100 mg to 600 mg once daily dose of drug 1 or placebo). The placebo control is included in this study to better assess safety and tolerability and the serum urate lowering effect of drug 1 in combination with febuxostat. Serum urate levels may be influenced by frequent blood draws and meal contents; therefore, the true effect on serum urate levels can be determined by correcting for placebo (subtract serum urate effect in placebo subjects from serum urate effect in active subjects).
# Subjects in each panel are randomly assigned to one of two treatment sequences (Sequence A or B) after all Baseline (Day −1) procedures have been completed. Each treatment sequence within a panel consists of 9 subjects randomly assigned to receive drug 1 (6 of 9 subjects) or matching placebo (3 of 9 subjects) in a double-blinded fashion. For each treatment sequence, single-agent drug treatment is administered on Days 1 to 7 (either open-label febuxostat or double-blinded drug 1 or matched placebo by random assignment), followed by combination treatment on Days 8 to 14, and completing with the alternative single-agent drug treatment on Days 15 to 21, as follows (Panel 1 shown in FIG. 2):
# Sequence A: Days 1-7: Febuxostat, 40 mg (once daily) • Days 8 to 14: drug 1, 200 mg or placebo in combination with febuxostat (once daily) • Days 15-21: drug 1, 200 mg, or placebo (once daily) Sequence B: Days 1-7: drug 1, 200 mg, or placebo (once daily) • Days 8 to 14: drug 1, 200 mg or placebo in combination with febuxostat (once daily) • Days 15-21: Febuxostat, 40 mg (once daily) […]
# Serial blood samples for PK and PD assessments are collected up to 24 hours after dosing on Days 7, 14, and 21. Urine (total catch) for assays of drug 1, creatinine, and uric acid are collected starting on Day −1 (pre-treatment baseline) and after dosing on Days 7, 14, and 21. Final safety assessments are completed when subjects return to the clinic at 7±1 days after discharge from the clinic on Day 22 (Follow-Up visit on Day 29). The total volume of blood collected from each subject is approximately 518 mL.
# Screening procedures to determine subject eligibility are performed 28 days before the first dose of study drug (Day 1). A total of up to 54 subjects enrolled in up to 3 panels consisting of 2 sequences each, with 9 subjects per sequence (18 subjects per panel). Subjects withdrawing after dosing are not replaced.
# Subjects in Panel 1 receive a 200 mg dose of drug 1 or placebo once daily for 14 days and a 40 mg dose of febuxostat once daily for 14 days. Subjects in Panel 2 receive a 400 mg dose of drug 1 or placebo once daily for 14 days and a 40 mg dose of febuxostat once daily for 14 days. Subjects in Panel 3 receive a 100-600 mg dose of drug 1 or placebo once daily for 14 days and a 40 mg dose of febuxostat once daily for 14 days.
# Subjects in Sequence A begin dosing on Day 1 with febuxostat and take their first dose of drug 1 or placebo on Day 8. […]
# [1] = Week 2, Drug 1 200 mg + febuxostat 40 mg combo
smiles,measurement,setting,value
"Cc1nc(-c2ccc(OCC(C)C)c(C#N)c2)sc1C(=O)O [Febuxostat, 2-(3-Cyano-4-isobutoxyphenyl)-4-methyl-1,3-thiazole-5-carboxylic acid, reference compound]","serum uric acid change from baseline, daily","Day 1, Drug 1 200 mg, FBX 40 mg",−6.4%
same,"% serum uric acid change, Mean",Day 1,−7.5%
same,"serum uric acid change from baseline, daily","Day 2, Drug 1 200 mg, FBX 40 mg",−25.7%
same,"% serum uric acid change, Mean",Day 2,−23.8%
same,"serum uric acid change from baseline, daily","Day 3, Drug 1 200 mg, FBX 40 mg",−33.6%
same,"% serum uric acid change, Mean",Day 3,−30.5%
same,"serum uric acid change from baseline, daily","Day 4, Drug 1 200 mg, FBX 40 mg",−37.8%
same,"% serum uric acid change, Mean",Day 4,−34.5%
same,"serum uric acid change from baseline, daily","Day 5, Drug 1 200 mg, FBX 40 mg",−37.9%
same,"% serum uric acid change, Mean",Day 5,−34.3%
same,"serum uric acid change from baseline, daily","Day 6, Drug 1 200 mg, FBX 40 mg",−42.6%
same,"% serum uric acid change, Mean",Day 6,−38.1%
same,"serum uric acid change from baseline, daily","Day 7, Drug 1 200 mg, FBX 40 mg",−44.6%
same,"% serum uric acid change, Mean",Day 7,−39.0%
same,"serum uric acid change from baseline, daily","Day 8, Drug 1 200 mg, FBX 40 mg, alone or combined as labelled",−42.7%
same,"% serum uric acid change, Mean",Day 8,−38.9%
same,"serum uric acid change from baseline, daily","Day 9, Drug 1 200 mg, FBX 40 mg, alone or combined as labelled",−38.1%
same,"serum uric acid change from baseline, daily","Day 10, Drug 1 200 mg, FBX 40 mg, alone or combined as labelled",−40%
same,"serum uric acid change from baseline, daily","Day 11, Drug 1 200 mg, FBX 40 mg, alone or combined as labelled",−39.2%
same,"serum uric acid change from baseline, daily","Day 12, Drug 1 200 mg, FBX 40 mg, alone or combined as labelled",−36.9%
same,"serum uric acid change from baseline, daily","Day 13, Drug 1 200 mg, FBX 40 mg, alone or combined as labelled",−36.8%
same,"serum uric acid change from baseline, daily","Day 14, Drug 1 200 mg, FBX 40 mg, alone or combined as labelled",−42%
same,"serum uric acid change from baseline, daily","Day 15, Drug 1 200 mg, FBX 40 mg, alone or combined as labelled",−39.1%
same,"serum uric acid change from baseline, daily","Day 15, FBX 40 mg after combo",−62.3%
same,"serum uric acid change from baseline, daily","Day 16, Drug 1 200 mg alone (week 3), FBX 40 mg alone",−36.5%
same,"serum uric acid change from baseline, daily","Day 16, FBX 40 mg after combo",−50.9%
same,"serum uric acid change from baseline, daily","Day 17, Drug 1 200 mg alone (week 3), FBX 40 mg alone",−35.8%
same,"serum uric acid change from baseline, daily","Day 17, FBX 40 mg after combo",−45.6%
same,"serum uric acid change from baseline, daily","Day 18, Drug 1 200 mg alone (week 3), FBX 40 mg alone",−36.3%
same,"serum uric acid change from baseline, daily","Day 18, FBX 40 mg after combo",−45.7%
same,"serum uric acid change from baseline, daily","Day 19, Drug 1 200 mg alone (week 3), FBX 40 mg alone",−33.6%
same,"serum uric acid change from baseline, daily","Day 19, FBX 40 mg after combo",−41%
same,"serum uric acid change from baseline, daily","Day 20, Drug 1 200 mg alone (week 3), FBX 40 mg alone",−34.3%
same,"serum uric acid change from baseline, daily","Day 20, FBX 40 mg after combo",−42.9%
same,"serum uric acid change from baseline, daily","Day 21, Drug 1 200 mg alone (week 3), FBX 40 mg alone",−37.6%
same,"serum uric acid change from baseline, daily","Day 21, FBX 40 mg after combo",−49.1%
same,"serum uric acid change from baseline, daily","Day 22, Drug 1 200 mg alone (week 3), FBX 40 mg alone",−35.2%
same,"serum uric acid change from baseline, daily","Day 22, FBX 40 mg after combo",−45.7%
same,"Absolute sUA reduction from baseline, Intraday peak","Week 1, Drug 1 200 mg alone",-3.4 mg/dL
same,"Absolute sUA reduction from baseline, Trough","Week 1, Drug 1 200 mg alone",-2.8 mg/dL
same,"Percent sUA reduction from baseline, Intraday peak","Week 1, Drug 1 200 mg alone",−55.3%
same,"Percent sUA reduction from baseline, Trough","Week 1, Drug 1 200 mg alone",−45.4%
same,"Absolute sUA reduction from baseline, Intraday peak",[1],-3.1 mg/dL
same,"Absolute sUA reduction from baseline, Trough",[1],-2.6 mg/dL
same,"Percent sUA reduction from baseline, Intraday peak",[1],−50.1%
same,"Percent sUA reduction from baseline, Trough",[1],−41.2%
same,"Absolute sUA reduction from baseline, Intraday peak","Week 3, Drug 1 200 mg alone",-3.3 mg/dL
same,"Absolute sUA reduction from baseline, Trough","Week 3, Drug 1 200 mg alone",-2.7 mg/dL
same,"Percent sUA reduction from baseline, Intraday peak","Week 3, Drug 1 200 mg alone",−49.0%
same,"Percent sUA reduction from baseline, Trough","Week 3, Drug 1 200 mg alone",−42.1%
